Measured values published in article PMC12227259, “PubChem BioAssays 1063: A Poorly Exploited Source of New Antileishmanial Compounds” (Journal of Parasitology Research, 2025).
Read-outs that look alike come from different tables or passages of the source.

How the values were obtained:
[1] = tested on: L. mexicana promastigotes; experiment: Growth inhibition assay of promastigotes (pNPP); format: cell-based, Leishmania (Leishmania) mexicana MNYC/BZ/62/M379; details: Leishmania mexicana, read-out: Promastigotes (IC50 ± SD) L. mexicana
Excerpt: (§1) Leishmania (Leishmania) amazonensis MHOM/BR/77/LTB0016 reference strain was kindly donated by the Department of Immunology of Fundação Oswaldo Cruz (Fiocruz), Brazil. Leishmania (Leishmania) mexicana MNYC/BZ/62/M379 and L. major MHOM/IL/81/Friedlin reference strains were kindly donated by Paul A. Bates, Division of Biomedical and Life Sciences, Faculty of Health and Medicine, Lancaster University, United Kingdom. Leishmania (Leishmania) infantum MHOM/FR/78/LEM75 was kindly donated by the Department of Parasitology, Faculty of Pharmacy, Universidad Complutense de Madrid, Spain. The promastigotes were cultivated at 26°C in Medium 199 (Gibco, Grand Island, NY, United States) supplemented with 10% heat-inactivated (56°C, 30 min) fetal bovine serum (Gibco, Grand Island, NY, United States) and antibiotics (200 IU penicillin and 200 μg/mL streptomycin). Exponential multiplication of the promastigotes of the four species was attained by passages every 3–4 days. L. mexicana axenic amastigotes were cultured in Schneider's Insect Medium (Sigma-Aldrich, St. Louis, MO, United States) at pH 5.4, supplemented with 20% heat-inactivated fetal bovine serum and antibiotics (as above).
(§2) The growth inhibition assay of promastigotes was conducted according to Bodley et al.'s procedure, with minor modifications. Briefly, 96-well culture plates were seeded with 100 μL culture medium 199 containing 5 × 10^5 log-phase promastigotes and 100 μL of twofold serial dilutions of the test compounds in culture medium. The plates were sealed with parafilm and incubated for 48 h at 26°C. Negative control wells contained promastigotes and DMSO at 0.5%, and positive wells contained promastigotes and 2.7 μM amphotericin B deoxycholate (Gibco, Grand Island, NY, United States). A series of amphotericin B concentrations was also tested in parallel to estimate its IC50 against promastigotes of the three Leishmania strains. After the incubation period, 30 μL of 3 mg/mL p-nitro-phenyl-phosphate (pNPP) (Sigma-Aldrich) in sodium acetate (pH 5.5, Sigma-Aldrich) and 1% Triton X-100 (Sigma-Aldrich) were added to each well. Plates were incubated for other 3 h at 37°C, and 50 μL 0.25 M NaOH (Sigma-Aldrich) was added to change all the produced p-nitro-phenol to its yellow-colored form. Absorbance was then read in a Biotek Epoch microplate reader (Agilent, Santa Clara, CA, United States) at 405 nm. Half-maximal inhibitory concentrations (IC50) were estimated by nonlinear fitting of absorbance versus compound concentration to the sigmoid Emax equation [18]. Each drug concentration was tested in quadruplicate, and the assay was repeated three times.

[2] = tested on: L. mexicana intracellular amastigotes; experiment: Intracellular amastigote transformation and proliferation assay; format: cell-based, Leishmania (Leishmania) mexicana; details: for IC50: Leishmania mexicana, Peritoneal macrophage, read-out: L. mexicana amastigotes (IC50 ± SD)
Excerpt: as §1
The activity of the test compounds against L. mexicana intracellular amastigotes was carried out by the transformation and proliferation assay as reported elsewhere. Briefly, mouse peritoneal macrophages were obtained by peritoneal lavage of BALB/c mice and cultivated in RPMI 1640 medium supplemented with fetal bovine serum and antibiotics as described above. The cells were seeded in 96-well culture plates at 10^5 cells/well (100 μL) and incubated at 37°C and 5% CO2 for 2 h. Then, macrophages were infected with L. mexicana axenic amastigotes at a rate of three parasites per host cell. After overnight incubation at 37°C and 5% CO2, noninternalized amastigotes and nonadhered macrophages were removed by the elimination of the culture medium and washing with phosphate buffer solution (PBS). Fresh RPMI 1640 medium containing serial dilutions of the test compounds was then added. Amphotericin B was tested in parallel at concentrations from 1.35 to 0.021 μM. Four replicates of each drug concentration were tested in every assay. Plates were incubated for 48 h at 37°C and 5% CO2.

[3] = tested on: L. infantum promastigotes; experiment: Growth inhibition assay of promastigotes (pNPP); format: cell-based, Leishmania (Leishmania) infantum MHOM/FR/78/LEM75; details: Leishmania infantum, read-out: Promastigotes (IC50 ± SD) L. infantum
Excerpt: as §1, §2

[4] = tested on: L. amazonensis promastigotes; experiment: Growth inhibition assay of promastigotes (pNPP); format: cell-based, Leishmania (Leishmania) amazonensis MHOM/BR/77/LTB0016; details: Leishmania amazonensis, read-out: Promastigotes (IC50 ± SD) L. amazonensis
Excerpt: as §1, §2

[5] = Cytotoxicity, alamar blue; format: cell-based, BALB/c mice; details: BALB/c, read-out: Cytotoxicity (CC50 ± SD)
Experimental: The cytotoxicity of the test compounds was assessed in primary cultures of mouse peritoneal macrophages as reported elsewhere, with minor modifications. Briefly, BALB/c mice were sacrificed by CO2 inhalation, and their peritoneal macrophages were collected by washing the abdominal cavity with cold RPMI 1640 (Gibco, Paisley, Scotland, United Kingdom) culture medium supplemented with antibiotics (sodium penicillin 200 IU and streptomycin 200 μg/mL) and 10% fetal bovine serum. The macrophages were distributed in 96-well culture plates at 10^5 cells/well. After 4 h incubation at 37°C and 5% CO2, the culture medium was replaced by fresh medium containing the test compounds, and the plates were incubated for another 48 h. Afterwards, 20 μL alamar blue (Thermo Fisher Scientific, Oregon, United States) was added per well. Incubation was continued for another 6–8 h at 37°C and 5% CO2 to measure the fluorescence of the reduced dye in a plate reader (excitation: 485 nm, emission: 590, scaling factor: 10/10, Fluoroskan Ascent FL 2.5 plate reader—Thermo Labsystems, Waltham, MA, United States). Fifty percent cytotoxic concentrations (CC50) were estimated by nonlinear fitting to the Emax sigmoid model. Each concentration was tested in triplicate, and each compound was tested in three independent studies.

L. major promastigotes = experiment: Growth inhibition assay of promastigotes (pNPP); format: cell-based, L. major MHOM/IL/81/Friedlin; details: Leishmania major, read-out: Promastigotes (IC50 ± SD) L. major
Excerpt: as §1, §2

L. mexicana = experiment: Mouse model of cutaneous leishmaniasis, intralesional treatment; format: in vivo, BALB/c mice; details: for lesion size versus amphotericin B–treated mice: at 21 days
Experimental: Female, 18–20 g, 8–10 weeks old BALB/c mice were supplied by the laboratory animal breeding facility of the Faculty of Medicine, National Autonomous University of México. They were maintained under controlled environmental conditions (room temperature 22°C–25°C, relative humidity 60%–65%, light cycle 12 h light–12 h dark) and were handled by qualified personnel. At the end of studies, mice were sacrificed by CO2 inhalation. The experimental protocol was approved by the Ethics in Research Committee and the Internal Committee on the Care and Use of Lab Animals (Code CICUAL 004-CIC-2019). All the experiments were conducted in accordance with the Mexican Regulation and the Institute of Laboratory Animal Research Guide for the care and use of laboratory animals.
Mice were infected by intradermal injection in the footpads with 10^7 stationary-phase L. mexicana promastigotes. Two weeks later, mice were randomly allocated in seven groups of 6–7 mice each. Four groups were treated intralesionally every 3 days (five doses) with 20 μL of any of the test compounds at 10 mg/mL in DMSO. […] The dorso-plantar thickness of the rear limbs was weekly measured from the beginning of treatment (14 days postinfection) to 2 weeks after the end of treatment. Feet were measured with a Vernier caliper, and lesion sizes were calculated by subtracting the value of the noninfected limb (left) to that of the infected one (right).
Two weeks after the end of treatment, mice were weighed, sacrificed by CO2 inhalation, and necropsied. The weights of the heart, liver, spleen, and left and right kidneys were determined. Both rear limbs were excised at the level of the tibiotarsal joint and weighed to calculate, by difference, the weight of the lesions. The number of parasites in the lesions was estimated by using the limiting dilution assay technique.

[6] = parameters: method as in PMID 6576723; details: subcutaneous route; cited from earlier work
Trypanosoma brucei = tested on: Trypanosoma brucei; parameters: method as in PMID 27501246; details: in vitro and in vivo; cited from earlier work
[7] = tested on: L. donovani axenic amastigotes; parameters: method as in PMID 27501246; details: cited from earlier work
Trypanosoma cruzi = tested on: Trypanosoma cruzi; parameters: method as in PMID 27501246; details: in vitro and in vivo; cited from earlier work
Leishmania = details: cited from earlier work
[8] = intracellular amastigotes in mouse peritoneal macrophages, 48 h, then 72 h transformation at 26°C
[9] = primary mouse peritoneal macrophages
[10] = second mention, p = 0.0057 (Compound 5), p = 0.0030 (Compound 6)

| Structure (SMILES) | IC50 ([1]; 48 h at 26°C, pNPP readout) [µM] | IC50 [2, 8] [µM] | IC50 ([3]; 48 h at 26°C, pNPP readout) [µM] | IC50 ([4]; 48 h at 26°C, pNPP readout) [µM] | CC50 at 48 h [5, 9] [µM] | IC50 (L. major promastigotes; 48 h at 26°C, pNPP readout) [µM] | further results |
| --- | --- | --- | --- | --- | --- | --- | --- |
| C[C@@H]1[C@H](O)[C@@H](C)/C=C/C=C/C=C/C=C/C=C/C=C/C=C/[C@H](O[C@@H]2O[C@H](C)[C@@H](O)[C@H](N)[C@@H]2O)C[C@@H]2O[C@](O)(C[C@@H](O)C[C@@H](O)[C@H](O)CC[C@@H](O)C[C@@H](O)CC(=O)O[C@H]1C)C[C@H](O)[C@H]2C(=O)O [AmB, amphotericin B deoxycholate, reference compound] | 0.042 ± 0.019 | 0.48 ± 0.02 | 0.031 ± 0.002 | 0.031 ± 0.007 | 21 ± 2.1 | 0.031 ± 0.008 | Selectivity index [2]: 44 |
| OC(COc1cccc2ccccc12)CN1CCCC1 (centres unmarked) [Compound 1] | > 50 | 26.3 ± 8.2 | 23.4 ± 9.2 | > 50 | 125 ± 11 | 42.5 ± 7.2 | Selectivity index ([2]; CC50/IC50 (in amastigotes)): 5 |
| CCN1CCN(C(=S)c2ccc(OC)cc2)CC1 [Compound 2] | > 50 | > 50 | > 50 | > 50 | 127 ± 2.1 | > 50 | – |
| COc1ccc2c(c1)sc(=N)n2C [Compound 3] | > 50 | > 50 | > 50 | 30.6 ± 11 | > 257 | > 50 | – |
| Nc1cnn(Cc2ccccc2F)c1 [Compound 4] | 11.1 ± 8.2 | 8.9 ± 1.5 | 23.1 ± 7.6 | 23.7 ± 9.9 | 172 ± 6.9 | 11.3 ± 2.2 | Selectivity index ([2]; CC50/IC50 (in amastigotes)): 19; number of parasites in lesions versus controls, distribution-free multiple comparison test (L. mexicana; limiting dilution, 2 weeks after the end of treatment, p = 0.0170): statistically significant differences |
| CC(C)OCCCn1c(=N)c(C(N)=S)cc2c(=O)n3ccccc3nc21 [Compound 5] | 27.2 ± 6.2 | 1.1 ± 0.3 | 13.8 ± 4.1 | 28.6 ± 14.3 | 172 ± 7.9 | 9.9 ± 1.9 | average lesion weight versus amphotericin B treated mice (L. mexicana; 2 weeks after the end of treatment, p = 0.023): statistically lower; lesion size versus amphotericin B–treated mice (L. mexicana; first mention, p = 0.0491): statistically smaller; lesion size versus amphotericin B–treated mice (L. mexicana; [10]): statistically smaller |
| CN1CCN(Cc2ccccc2Sc2ccccc2)CC1 [Compound 6] | 2.3 ± 0.54 | 5.9 ± 2.8 | 2.7 ± 1 | 3 ± 0.42 | – | 4.6 ± 2.3 | Selectivity index ([2]; CC50/IC50 (in amastigotes)): 10; lesion size versus amphotericin B–treated mice (L. mexicana; [10]): statistically smaller; CC50 ([5]; mouse peritoneal macrophages, 48 h): 60.9 ± 10.7 µM |
| O=C(Cn1cc([N+](=O)[O-])nc1[N+](=O)[O-])N1CCN(c2ccccc2)CC1 [Compound 7] | – | – | – | – | – | – | IC50 ([1]; 48 h): 0.76 ± 0.16 µM; IC50 ([2]; in Mus musculus): 0.23 ± 0.04 µM; IC50 ([3]; 48 h): 5.9 ± 1 µM; IC50 ([4]; 48 h): 1.2 ± 0.44 µM; CC50 at 48 h ([5]; mouse peritoneal macrophages): 25.2 ± 1.9 µM; IC50 (L. major promastigotes; 48 h): 2.9 ± 0.56 µM |
| C[S+](C)[O-] [DMSO, dimethyl sulfoxide] | – | – | – | – | – | – | 50% lethal single dose toxicity [6]: 13.9 to 20.5 g/kg |
| Cc1nc(C)c(C(=O)Nc2ccc(F)c(-c3nc4ncc(-c5ccccn5)cn4n3)c2)o1 [GNF 6702] | – | – | – | – | – | – | activity against Trypanosoma brucei (Trypanosoma brucei): active; increase in potency on optimization of hit GNF5343 [7]: 400 fold; activity against Trypanosoma cruzi (Trypanosoma cruzi): active |
| CCN(CC)C(=S)SSC(=S)N(CC)CC [disulfiram] | – | – | – | – | – | – | in vivo activity in an experimental model of cutaneous leishmaniasis (Leishmania): in vivo activity |
